According to PubChem BioAssay AID743490 (The Scripps Research Institute Molecular Screening Center, 2014):
Activity calls are given as the source filed them. How the calls were made is not given here.

Biological target: Trace amine-associated receptor 1 (Homo sapiens) (UniProt Q96RJ0)
Assay: TAAR1 desensitization by agonist compounds, SAR follow-up, counter-screen for TAAR1 agonist project, cell-based, fluorescence, human, MedChem round 1 (AID 743490)
Conditions: hTAAR1 cells, desensitization of agonist response

Sequence of Trace amine-associated receptor 1 (Homo sapiens) (Q96RJ0 whole entry, looked up): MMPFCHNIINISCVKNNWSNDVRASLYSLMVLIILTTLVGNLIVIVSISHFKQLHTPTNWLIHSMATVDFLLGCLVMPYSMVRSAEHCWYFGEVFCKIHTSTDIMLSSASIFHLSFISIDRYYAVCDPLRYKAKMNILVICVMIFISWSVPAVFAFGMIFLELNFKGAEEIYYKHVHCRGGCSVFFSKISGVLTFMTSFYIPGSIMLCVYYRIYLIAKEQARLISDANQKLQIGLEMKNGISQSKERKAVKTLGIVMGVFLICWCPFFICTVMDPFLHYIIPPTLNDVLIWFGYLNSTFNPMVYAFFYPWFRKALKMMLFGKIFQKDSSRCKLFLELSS

SMILES	IC50
O=C(CCN1CCC(O)(c2ccccc2)C1)c1ccc2c(c1)OCCO2 (stereo unspecified)	> 29.9 µM (inactive)
CC(CN1CCCC1Cc1ccccc1)C(=O)c1ccc2c(c1)OCCO2 (stereo unspecified)	> 29.9 µM (inactive)
O=C(CCN1C[C@@H](C(=O)O)[C@H](c2cccc(F)c2)C1)NC1CC1	> 29.9 µM (inactive)
CC1CN(CCC(=O)c2ccc3c(c2)OCCO3)CC1c1ccccc1 (stereo unspecified)	4.4 µM
Cc1ccc(C(=O)CCN2CCC(c3ccccc3)C2)cc1 (stereo unspecified)	> 29.9 µM (inactive)
CC(CN1CCC(c2ccccc2)C1)C(=O)c1ccc2c(c1)OCCO2 (stereo unspecified)	> 29.9 µM (inactive)
NC(=O)CCN1C[C@H](c2ccccc2)[C@@H]2[C@H]1C1CCN2CC1	> 29.9 µM (inactive)
O=C(CCN1C[C@@H](C(=O)O)[C@H](c2ccccc2)C1)NC1CCCC1	> 29.9 µM (inactive)
O=C(CCN1C[C@@H](C(=O)O)[C@H](c2ccccc2)C1)NCc1cccs1	> 29.9 µM (inactive)
O=C(CCN1CCC(O)(c2ccc(F)cc2)C1)c1ccc2c(c1)OCCO2 (stereo unspecified)	> 29.9 µM (inactive)
O=C(CCN1CCC(c2ccccc2)C1)c1ccccc1 (stereo unspecified)	inactive
